Experimental data taken from patent publication EP0360937B1, “Improved process for recovering microbially produced interferonbeta” (CETUS ONCOLOGY CORPORATION, priority 1988, dated 1990).

Columns and labels:
[1] = target: T1, IFN-beta (Homo sapiens, UniProt P01574, C38S); test: Keeping IFN-beta soluble as guanidine HCl is removed by dialysis; supernatant and pellet analysed by SDS-PAGE and silver stain; assay type: physicochemical; design: key to Successful (+)/ Unsuccessful (-): Successful (+); Unsuccessful (-); conditions: for Successful (+)/ Unsuccessful (-): dialysis against sodium phosphate buffer pH 5.0; for keeping IFN-beta in solution: 15% PEG300, 25% glycerol, 50% sucrose, 20% isopropanol
T1 construct: made in house; host or cells: E. coli K12/MM294-1 carrying plasmid pSY2501 (ATCC 39,517)
Description: At this point, a stabilizing additive was added to the oxidized IFN-beta material while guanidine HCl is still present, and the solution was dialyzed to remove the guanidine. The solubilized, oxidized material was divided into aliquots and a different stabilizing agent or a non-ionic detergent was added to each aliquot. A summary of the stabilizing agents and non-ionic detergents used in this example, as well as the concentration used, is provided in Table 1.
Each aliquot was dialyzed against 20-50 mM sodium phosphate buffer, pH 5.0 containing the appropriate stabilizer or detergent. […] Dialysis was run at pH 5.0 because rIFN-beta is more soluble at low pH than at neutral or higher pH. As the guanidine HCl was dialyzed from the sample, a precipitate formed. The aliquots were centrifuged at 5,000 x g for 15 min and both the supernatant and the pellet, resuspended in 1% SDS, were saved. The supernatant and resuspended pellet were analyzed by SDS-PAGE (PHAST system by Pharmacia) and silver stain to locate the rIFN-beta.

[2] = target: T1, IFN-beta; test: Absorbance at 280 nm in supernatant after dialysis against glycerol, with varied concentration and pH; assay type: physicochemical; conditions: for % A₂₈₀ in Supernatant: 25 mM NaPi

T1 sequence (P01574 23-187 C38S limits assumed): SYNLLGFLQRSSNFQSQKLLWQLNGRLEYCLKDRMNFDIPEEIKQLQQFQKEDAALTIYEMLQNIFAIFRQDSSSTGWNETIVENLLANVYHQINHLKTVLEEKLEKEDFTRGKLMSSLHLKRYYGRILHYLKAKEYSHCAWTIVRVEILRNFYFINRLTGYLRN

CCC(O)CO (centres unmarked) [1,2-butanediol]
Successful (+)/ Unsuccessful (-) ([1]; reagent at 20%): -

OCC(O)COc1ccccc1 (centres unmarked) [3-phenoxy-1,2-propanediol]
Successful (+)/ Unsuccessful (-) ([1]; reagent at 5%): -

OCCO [Ethylene Glycol]
Successful (+)/ Unsuccessful (-) ([1]; reagent at 20%): -

OCC(O)CO [Glycerol]
keeping IFN-beta in solution [1]: keep IFN-beta in solution
% A₂₈₀ in Supernatant ([2]; 25%, pH 4): 31%
% A₂₈₀ in Supernatant ([2]; 25%, pH 5): 13%
% A₂₈₀ in Supernatant ([2]; 50%, pH 4): 86%
% A₂₈₀ in Supernatant ([2]; 50%, pH 5): 50%
IFN-beta solubility on adjusting concentration and pH ([2]; concentration increased to 50% and pH lowered to 4): greater IFN-beta solubility

CC(C)O [Isopropanol]
keeping IFN-beta in solution [1]: keep IFN-beta in solution
Successful (+)/ Unsuccessful (-) ([1]; reagent at 50%): +

CC(O)CO (centres unmarked) [Propylene Glycol]
Successful (+)/ Unsuccessful (-) ([1]; reagent at 20%): -

OC[C@H]1O[C@@](CO)(O[C@H]2O[C@H](CO)[C@@H](O)[C@H](O)[C@H]2O)[C@@H](O)[C@@H]1O [Sucrose]
keeping IFN-beta in solution [1]: keep IFN-beta in solution

Tween® 80
keeping IFN-beta in solution, detergent combined with glycerol ([1]; 0.01% detergent with 25% glycerol at pH 4, A280 and SDS-PAGE): keep most of the IFN-beta in solution
